Laboratory results: publication PMC9573387, “The First 5′-Phosphorylated 1,2,3-Triazolyl Nucleoside Analogues with Uracil and Quinazoline-2,4-Dione Moieties: A Synthesis and Antiviral Evaluation” (Molecules, 2022)
Counter-ions that a name gives are not always drawn. Like-named read-outs stand apart in the source and are kept apart here.

Key:
HIV = conditions: cited from earlier work
[1] = tested on: recombinant HIV reverse transcriptases (RT); set-up: method as in PMID 17434736; conditions: cited from earlier work
wild-type HIV RT = tested on: wild-type HIV RT; set-up: method as in PMID 17434736; conditions: cited from earlier work
[2] = tested on: A/Puerto Rico/8/34 (H1N1) influenza virus; assay: microbe, parasite or virus in culture; type: cell-based; conditions: for IC50: 48 h, A/Puerto Rico/8/34 (H1N1), MDCK cells, read-out: IC50 (50% inhibition of virus replication)
in vitro = conditions: dog
MDCK (ATCC CCL-34) cells [3] = tested on: MDCK (ATCC CCL-34) cells
MDCK (ATCC CCL-34) cells [4] = conditions: read-out: CC50 (median cytotoxic concentration); parent nucleoside analogues; cited from earlier work
[5] = tested on: A/Puerto Rico/8/34 (H1N1) influenza virus; set-up: method as in PMID 32930935; conditions: parent nucleoside analogues, cited from earlier work; for IC50: A/Puerto Rico/8/34 (H1N1), read-out: IC50 (50% inhibition of virus replication)

SMILES: Nc1nc(=O)n([C@H]2C[C@@H](CO)C2)cc1F [5-fluoro-1-[cis-3-(hydroxymethyl)-cyclobutyl]-cytosine]
- Anti-HIV activity, inactive up to (HIV; in vitro): > 100 µM

SMILES: Nc1nc(=O)n([C@H]2C[C@@H](COP(=O)(O)OP(=O)(O)OP(=O)(O)O)C2)cc1F [5′-triphosphate of 5-fluoro-1-[cis-3-(hydroxymethyl)-cyclobutyl]-cytosine]
- IC50 [1]: 4.7 µM
- IC50 (wild-type HIV RT): 6.9 µM

SMILES: CCOP(=O)(OCC)OC[C@H]1O[C@@H](n2cc(Cn3ccc(=O)[nH]c3=O)nn2)[C@H](O)[C@@H]1O [Compound 11a]
- IC50 ([2]; Influenza A virus, H1N1, MDCK): 434 ± 39 µM
- CC50 (in vitro): > 650 µM

SMILES: CCOP(=O)(OCC)OC[C@H]1O[C@@H](n2cc(Cn3c(=O)[nH]c(=O)c4ccccc43)nn2)[C@H](O)[C@@H]1O [Compound 11b]
- IC50 ([2]; Influenza A virus, H1N1, MDCK): 411 ± 51 µM
- CC50 (in vitro): > 587 µM

SMILES: CCOP(=O)(OCC)OC[C@H]1O[C@@H](n2cc(CCCCn3ccc(=O)[nH]c3=O)nn2)[C@H](O)[C@@H]1O [Compound 12a, 1-[4-(2,4-dioxo-pyrimidine-1-yl-butyl)-1,2,3-triazol-1-yl]--D-ribofuranose-5-yl diethyl phosphate]
- Antiviral activity against H1N1 (A/PR/8/34) influenza virus, in words [2]: inactive
- IC50 [2]: 250 ± 22 µM
- IC50 ([2]; Influenza A virus, H1N1, MDCK): > 180 µM
- CC50 (in vitro): > 596 µM

SMILES: CCOP(=O)(OCC)OC[C@H]1O[C@@H](n2cc(CCCCn3c(=O)[nH]c(=O)c4ccccc43)nn2)[C@H](O)[C@@H]1O [Compound 12b]
- IC50 ([2]; Influenza A virus, H1N1, MDCK): > 542 µM
- CC50 (in vitro): > 542 µM

SMILES: O=c1ccn(Cc2cn([C@@H]3O[C@H](COP(=O)(Oc4ccccc4)Oc4ccccc4)[C@@H](O)[C@H]3O)nn2)c(=O)[nH]1 [Compound 13a]
- IC50 ([2]; Influenza A virus, H1N1, MDCK): 121 ± 7 µM
- CC50 (in vitro): > 538 µM

SMILES: O=c1[nH]c(=O)n(Cc2cn([C@@H]3O[C@H](COP(=O)(Oc4ccccc4)Oc4ccccc4)[C@@H](O)[C@H]3O)nn2)c2ccccc12 [Compound 13b]
- Antiviral activity exceeding that of the parent compound ([2]; IC50 versus parent compound 33b): 2 times
- IC50 ([2]; Influenza A virus, H1N1, MDCK): 17.9 ± 3 µM
- Increase of selectivity index over the parent compound ([2]; SI versus parent compound 33b): 7 times
- CC50 (in vitro): > 494 µM

SMILES: O=c1ccn(CCCCc2cn([C@@H]3O[C@H](COP(=O)(Oc4ccccc4)Oc4ccccc4)[C@@H](O)[C@H]3O)nn2)c(=O)[nH]1 [Compound 14a]
- Antiviral activity against H1N1 (A/PR/8/34) influenza virus, in words [2]: inactive
- IC50 [2]: 183 ± 15 µM
- IC50 ([2]; Influenza A virus, H1N1, MDCK): > 180 µM
- CC50 (in vitro): > 500 µM

SMILES: O=c1[nH]c(=O)n(CCCCc2cn([C@@H]3O[C@H](COP(=O)(Oc4ccccc4)Oc4ccccc4)[C@@H](O)[C@H]3O)nn2)c2ccccc12 [Compound 14b]
- SI (selectivity index, CC50/IC50 ratio) [2]: 2
- IC50 ([2]; Influenza A virus, H1N1, MDCK): 51 ± 4 µM
- Increase of cytotoxicity over the parent compound (MDCK (ATCC CCL-34) cells [3]; CC50 versus parent compound 34b): 7 fold
- CC50 (in vitro): 98 ± 6 µM

SMILES: COC(=O)[C@H](C)NP(=O)(OC[C@H]1O[C@@H](n2cc(Cn3ccc(=O)[nH]c3=O)nn2)[C@H](O)[C@@H]1O)Oc1ccccc1 (stereo partly shown) [Compound 17a]
- IC50 ([2]; Influenza A virus, H1N1, MDCK): 25 ± 4 µM
- CC50 (in vitro): > 530 µM

SMILES: COC(=O)[C@H](C)NP(=O)(OC[C@H]1O[C@@H](n2cc(Cn3c(=O)[nH]c(=O)c4ccccc43)nn2)[C@H](O)[C@@H]1O)Oc1ccccc1 (stereo partly shown) [Compound 17b]
- IC50 ([2]; Influenza A virus, H1N1, MDCK): > 487 µM
- CC50 (in vitro): > 487 µM

SMILES: COC(=O)[C@H](C)NP(=O)(OC[C@H]1O[C@@H](n2cc(CCCCn3ccc(=O)[nH]c3=O)nn2)[C@H](O)[C@@H]1O)Oc1ccccc1 (stereo partly shown) [Compound 18a]
- Antiviral activity against H1N1 (A/PR/8/34) influenza virus, in words [2]: inactive
- CC50 (in vitro): > 463 µM

SMILES: COC(=O)[C@H](C)NP(=O)(OC[C@H]1O[C@@H](n2cc(CCCCn3c(=O)[nH]c(=O)c4ccccc43)nn2)[C@H](O)[C@@H]1O)Oc1ccccc1 (stereo partly shown) [Compound 18b]
- IC50 ([2]; Influenza A virus, H1N1, MDCK): > 456 µM
- CC50 (in vitro): > 456 µM

SMILES: O=c1ccn(Cc2cn([C@@H]3O[C@H](CO[PH](=O)O)[C@@H](O)[C@H]3O)nn2)c(=O)[nH]1 [Compound 23a, 1-[4-(2,4-dioxo-pyrimidine-1-yl-methyl)-1,2,3-triazol-1-yl]--D-ribofuranose-5-yl H-phosphonate triethylammonium salt]
- IC50 ([2]; Influenza A virus): 204 ± 28 µM
- CC50 (in vitro): > 612 µM

SMILES: O=c1[nH]c(=O)n(Cc2cn([C@@H]3O[C@H](CO[PH](=O)O)[C@@H](O)[C@H]3O)nn2)c2ccccc12 [Compound 23b]
- IC50 ([2]; Influenza A virus): 176 ± 21 µM
- CC50 (in vitro): > 555 µM

SMILES: O=c1ccn(CCCCc2cn([C@@H]3O[C@H](CO[PH](=O)O)[C@@H](O)[C@H]3O)nn2)c(=O)[nH]1 [Compound 24a]
- Antiviral activity against H1N1 (A/PR/8/34) influenza virus, in words [2]: inactive
- IC50 ([2]; Influenza A virus): 218 ± 32 µM
- CC50 (in vitro): > 564 µM

SMILES: O=c1[nH]c(=O)n(CCCCc2cn([C@@H]3O[C@H](CO[PH](=O)O)[C@@H](O)[C@H]3O)nn2)c2ccccc12 [Compound 24b]
- IC50 ([2]; Influenza A virus, H1N1, MDCK): > 516 µM
- CC50 (in vitro): > 516 µM

SMILES: O=c1ccn(Cc2cn([C@@H]3O[C@H](COP(=O)(O)O)[C@@H](O)[C@H]3O)nn2)c(=O)[nH]1 [Compound 25a]
- IC50 ([2]; Influenza A virus, H1N1, MDCK): > 494 µM
- CC50 (in vitro): > 494 µM

SMILES: O=c1[nH]c(=O)n(Cc2cn([C@@H]3O[C@H](COP(=O)(O)O)[C@@H](O)[C@H]3O)nn2)c2ccccc12 [Compound 25b]
- IC50 ([2]; Influenza A virus): 159 ± 19 µM
- CC50 (in vitro): > 458 µM

SMILES: O=c1ccn(CCCCc2cn([C@@H]3O[C@H](COP(=O)(O)O)[C@@H](O)[C@H]3O)nn2)c(=O)[nH]1 [Compound 26a]
- Antiviral activity against H1N1 (A/PR/8/34) influenza virus, in words [2]: inactive
- IC50 ([2]; Influenza A virus): 195 ± 26 µM
- CC50 (in vitro): > 463 µM

SMILES: O=c1[nH]c(=O)n(CCCCc2cn([C@@H]3O[C@H](COP(=O)(O)O)[C@@H](O)[C@H]3O)nn2)c2ccccc12 [Compound 26b]
- IC50 ([2]; Influenza A virus): > 430 µM
- CC50 (in vitro): > 430 µM

SMILES: O=c1ccn(Cc2cn([C@@H]3O[C@H](CO)[C@@H](O)[C@H]3O)nn2)c(=O)[nH]1 [Compound 33a]
- CC50 (MDCK (ATCC CCL-34) cells [4]): > 880 µM
- IC50 [5]: > 880 µM
- Antiviral activity against H1N1 (A/PR/8/34) influenza virus, in words [5]: completely inactive

SMILES: O=c1[nH]c(=O)n(Cc2cn([C@@H]3O[C@H](CO)[C@@H](O)[C@H]3O)nn2)c2ccccc12 [Compound 33b]
- SI (selectivity index, CC50/IC50 ratio) [2]: 3
- IC50 [5]: 42 ± 5 µM

SMILES: O=c1ccn(CCCCc2cn([C@@H]3O[C@H](CO)[C@@H](O)[C@H]3O)nn2)c(=O)[nH]1 [Compound 34a]
- CC50 (MDCK (ATCC CCL-34) cells [4]): > 817 µM
- IC50 [5]: > 180 µM
- Antiviral activity against H1N1 (A/PR/8/34) influenza virus, in words [5]: inactive

SMILES: O=c1[nH]c(=O)n(CCCCc2cn([C@@H]3O[C@H](CO)[C@@H](O)[C@H]3O)nn2)c2ccccc12 [Compound 34b]
- CC50 (MDCK (ATCC CCL-34) cells [4]): > 719 µM
- IC50 [5]: 30 ± 4 µM

SMILES: CCC(CC)O[C@@H]1C=C(C(=O)O)C[C@H](N)[C@H]1NC(C)=O [Oseltamivir carboxylate, reference compound]
- SI (selectivity index, CC50/IC50 ratio) [2]: >667
- IC50 ([2]; Influenza A virus): 0.3 ± 0.06 µM
- CC50 (in vitro): > 200 µM

SMILES: COC(=O)[C@H](C)NP(=O)(OC[C@H]1O[C@@H](n2cc(C)c(=O)[nH]c2=O)C[C@@H]1N=[N+]=[N-])Oc1ccccc1 (stereo partly drawn) [ProTide-ZDV, 5′-(phenylmethoxy-L-alaninyl)phosphate of Zidovudine]
- Better activity against HIV than the parent nucleoside analogue (HIV; ProTide versus parent): more than 100 times

SMILES: NC(=O)c1ncn([C@@H]2O[C@H](CO)[C@@H](O)[C@H]2O)n1 [Ribavirin, reference compound]
- SI (selectivity index, CC50/IC50 ratio) [2]: 3
- IC50 ([2]; Influenza A virus): 31 ± 9 µM
- CC50 (MDCK (ATCC CCL-34) cells [3]; dog): 94 ± 48 µM

SMILES: CC(N)C12CC3CC(CC(C3)C1)C2 (stereo not shown) [Rimantadine, reference compound]
- SI (selectivity index, CC50/IC50 ratio) [2]: 4
- IC50 ([2]; Influenza A virus, H1N1, MDCK): 77 ± 8 µM
- CC50 (MDCK (ATCC CCL-34) cells [3]; read-out: CC50 (median cytotoxic concentration), MDCK cells, MTT, concentration causing 50% cell death): 340 ± 16 µM
